Data reported in patent publication US5595760A, “Sustained release of peptides from pharmaceutical compositions” (Delab, priority 1995, dated 1997).

What was measured:
[1] = Solubility of the peptide salt in water; assay type: physicochemical; conditions: pH 7.0, 25° C.
Excerpt: As used herein, a "gelable peptide salt" is a peptide salt which will form a gel upon contact with bodily fluids. Whether a peptide salt is "gelable," and will have the desired biological properties, can be determined by testing the peptide salt in the in vitro and in vivo assays described below. The term "peptide" means a natural or synthetic molecule comprising two or more amino acids linked by the carboxyl group of one amino acid and the amino group of another. Thus, the term includes both polypeptides and proteins. A "soluble" peptide salt is one having a solubility of 0.1 mg/ml, and preferably 1.0 mg/ml, in water at a pH of 7.0 and a temperature of 25° C.
A solution of the peptide composition is undesirable, because such a solution, once injected, will disperse and not form the sustained-release gel of the invention. Thus, the amount of water is carefully selected to be less than that required to dissolve a specific amount of the peptide composition For example, at 25° C., pH 7.0, 1.0 ml or less of water is required when mixed with 26 mg of the acetate salt of SOMATULINE™ to avoid the formation of a solution. By using an amount of water that is less than 50 percent, and preferably less than 20 or 10 percent, of the amount of water required to dissolve a peptide salt, a semisolid or paste-like suspension, rather than a solution, is ensured.

[2] = In vivo blood level release profile in dogs (plasma RIA); set-up: species or system dog; conditions: gels at sufficient dosages
Method: Once a particular peptide salt is found to gel in any of the in vitro assays described above, an in vivo assay can be used to determine the suitability of that peptide salt for therapeutic use in animals or humans. A blood level release profile for a particular peptide salt can be determined by injecting the peptide salt into an animal, e.g., a Sprague Dawley rat or dog, and testing blood samples taken at specific time intervals, e.g., hourly intervals over 1 to 5 days, or 12 or 24 hour intervals over 5 to 45 days, for the concentration of the peptide. The suitability of a particular peptide gel, or a peptide/carrier gel, for therapeutic delivery of the peptide can thus be determined.
Specifically, animals are anaesthetized with pentobarbital (60 mg/kg i.p. for rats), and a jugular vein is cannulated for blood sampling. A test peptide semisolid suspension or solid composition (or standard solution for comparison purposes), e.g., of SOMATULINE™, is injected subcutaneously at a specific dosage, e.g., 1.0, 3.0, or 6.0 mg/kg of SOMATULINE™. […] The amount of peptide in the plasma samples is determined by a standard radioimmunoassay (RIA) technique that allows a direct measurement without extraction of the peptide from the rat plasma. […]

SMILES: CC(C)[C@@H]1NC(=O)[C@H](CCCCN)NC(=O)[C@@H](Cc2c[nH]c3ccccc23)NC(=O)[C@H](Cc2ccc(O)cc2)NC(=O)[C@@H](NC(=O)[C@H](N)Cc2ccc3ccccc3c2)CSSC[C@@H](C(=O)N[C@H](C(N)=O)[C@@H](C)O)NC1=O [SOMATULINE™]
- solubility [1]: 26.0 mg/mL
- duration of sustained release of at least 1.0 ng/ml of the peptide in the blood [2]: over one month
